Reference: paper PMC12598866, “A Comparative Study of Virucidal and Virustatic Multivalent Entry Inhibitors” (The Journal of Physical Chemistry. B, 2025)
Like-named read-outs stand apart in the source and are kept apart here.

What was measured:
[1] = Cytotoxicity assay on Vero cells (MTS); format: cell-based; conditions: African green monkey
Method: Cytotoxicity assay was performed on the Vero cell line with the MTS assay. The cells were plated for 24 h in DMEM medium containing 10% FBS and 1% penicillin/streptomycin with a seeding density of 2 × 10^4 per well in a 96-well plate. […] Then, the cells were washed with PBS twice, followed by the addition of 20 μL MTS reagents together with 80 μL DMEM medium. They were then incubated at 37 °C for 4 h. The cell viability was checked by absorbance at 490 nm with a plate reader.

BSA = target: T1, BSA (Bos taurus, UniProt P02769); experiment: Isothermal titration calorimetry with BSA; format: binding, bovine; conditions: ITC
T1 construct: purchased Sigma-Aldrich
T1 sequence (P02769 25-607): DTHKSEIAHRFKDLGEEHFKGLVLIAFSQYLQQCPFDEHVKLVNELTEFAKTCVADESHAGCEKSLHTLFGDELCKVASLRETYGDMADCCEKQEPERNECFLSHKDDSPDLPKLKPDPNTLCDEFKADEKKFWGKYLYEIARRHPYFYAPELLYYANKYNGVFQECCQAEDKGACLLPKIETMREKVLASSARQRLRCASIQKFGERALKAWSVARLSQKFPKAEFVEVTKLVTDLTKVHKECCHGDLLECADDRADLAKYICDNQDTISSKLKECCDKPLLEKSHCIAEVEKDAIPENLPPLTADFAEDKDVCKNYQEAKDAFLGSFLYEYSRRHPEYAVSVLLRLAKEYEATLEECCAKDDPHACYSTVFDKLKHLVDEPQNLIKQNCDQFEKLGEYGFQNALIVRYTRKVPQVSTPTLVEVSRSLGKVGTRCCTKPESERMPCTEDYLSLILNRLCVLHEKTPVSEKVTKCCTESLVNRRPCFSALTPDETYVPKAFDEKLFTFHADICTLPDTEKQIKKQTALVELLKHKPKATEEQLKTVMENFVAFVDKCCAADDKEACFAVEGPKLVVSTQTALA

[2] = target: glycoprotein D (gD) of HSV; experiment: Isothermal titration calorimetry with glycoprotein D; format: binding; conditions: ITC, 25°C
Method: Isothermal titration calorimetry (ITC) experiments were conducted using ITC200 instruments (GE Healthcare, USA) equipped with a 200 μL sample cell and a 40 μL syringe. Thirteen injections were applied. The first data point was excluded. BSA protein and viral protein concentrations in the cell were approximately 50 μM and 1 mg/mL, respectively, and ligand concentrations in the syringe were roughly 2 mM. They were centrifuged at 2000g for 2 min to remove bubbles. The titration was performed at 25 or 37 °C, with data analyzed using MicroCal PEAQ ITC software. Baseline correction was applied, and Nitpic/Sedphat was used for automated integration to ensure precise binding parameter determination.

H1N1N09 = experiment: Influenza inhibition assay (ICC on MDCK cells); format: cell-based, Influenza A/Netherlands/602/2009 (H1N1); conditions: Influenza A virus, dose–response
H1N1 clinical = experiment: Influenza inhibition assay (ICC on MDCK cells); format: cell-based; conditions: Influenza A virus, dose–response
HSV-2 [3] = experiment: Growth of viruses in the presence of compounds (posttreatment), HSV-2; format: cell-based, herpes simplex virus type 2; conditions: for IC50: Human alphaherpesvirus 2, Vero, posttreatment condition, Vero cells
HSV-2 [4] = experiment: HSV-2 inhibition assay (plaque reduction on Vero cells, pretreatment); format: cell-based, herpes simplex virus type 2; conditions: Human alphaherpesvirus 2, Vero, pretreatment condition
HSV-1 = HSV-1 inhibition assay (plaque reduction on Vero cells); format: cell-based, herpes simplex virus type 1; conditions: Human alphaherpesvirus 1, dose–response
Method: The inhibitory effect of compounds on HSV-1 was evaluated by plaque reduction assay. Vero cells were plated 24 h before the experiment in 24-well plates at a density of 10^5 cells/well. Serial dilutions of compounds in DMEM medium (2% FBS, 1% P/S) were prepared, followed by the addition of aliquots of HSV-1 such that the final titer of the virus is […] (with MOI = 0.0005). Compounds/virus mixtures were incubated at 37 °C for 1 h and added to the cells (250 μL/well). Followed by incubation at 37 °C for 1 h, the viral inoculum was removed. The cells were overlaid with DMEM medium containing 1.2% methylcellulose, 2% FBS, and 1% P/S. After 3 days of incubation at 37 °C, 5% CO2, the cells were fixed and stained with 0.1% crystal violet in 20% ethanol, and plaques were counted. Each group of experiments in the inhibition assay was performed in triplicate. The concentration producing a 50% reduction in plaque formation was determined using the Prism 10 software (GraphPad Software, USA) by comparing compound-treated and untreated cells. Infectivity was calculated as the number of plaques in compound-treated cells/number of plaques in untreated cells × 100%.

[5] = Partition coefficient octanol/water (UV-vis); format: physicochemical
Method: UV–vis spectroscopy was employed first to determine the correct dilution of all compounds. The seven compounds in this study were B3C11SO4, B3C11SO3, B3C6SO3, B3C6SO4, C4C11SO4, C4C11SO3, and C4C3SO3. The protocol is the same for all the compounds: in the beginning, all compounds were dissolved in water at a concentration of 1 mg/mL. The solution was put into a quartz cuvette and then into the UV–vis spectrometer, where the absorbance from wavelengths 600 to 190 nm was investigated. All of the samples presented a peak in absorbance around 200 nm. The samples were diluted further until the absorbance peak reached values near 0.90.
A biphasic solution composed of 1.5 mL of a water solution of antiviral +1.5 mL of octanol was thoroughly mixed for 60 min. After the mixing, the two phases were separated by centrifugation for 1 min using a benchtop centrifuge at 5000 rpm. The water phase saturated in octanol and the octanol phase saturated with water were extracted and characterized by UV–vis spectrometry.
The partition coefficient (log P) was then calculated using formula : logP=log(Absorbanceofoctanolphase/Absorbanceofwaterphase) 1

[6] = CMC assay (conductivity method); format: physicochemical; conditions: in water
Method: The CMC of antiviral compounds was measured by the conductivity method. Antiviral compounds were diluted into water at different concentrations, and the conductivity (μS/cm) was measured at each concentration with a conductivity meter (Mettler Toledo, Switzerland). The CMC was identified as the point on the conductivity-concentration plot where the slope changed.

Flu B = experiment: Influenza inhibition assay (ICC on MDCK cells); format: cell-based; conditions: dose–response
HSV-2 [7] = experiment: HSV-2 virucidal assay; format: cell-based, herpes simplex virus type 2; conditions: for inhibition mechanism against HSV-2 (in words): virucidal tests
[8] = test system: NO production in RAW 264.7 cells; experiment: NO production in LPS-stimulated macrophages; format: cell-based; conditions: Mus musculus, RAW264.7; RAW 264.7 pretreated 2 h with MEIs, then LPS 1 μg/mL for 24 h
Method: To evaluate the anti-inflammatory potential of MEIs, we investigated their ability to reduce the level of NO production in macrophages. RAW 264.7 cells were pretreated with the different concentrations of MEIs for 2 h, followed by stimulation with lipopolysaccharide (LPS) (1 μg/mL) for 24 h to induce inflammation. […] However, cotreatment with MEIs led to a reduction in NO levels, confirming their anti-inflammatory effect.

[9] = H2O, 25 °C (Table 5), read-out: K d (BSA)

Row | Structure (SMILES) | CC50 at 48 h [1] [µM] | ΔG (BSA) (BSA; H2O, 25 °C (Table 5)) | ΔH (BSA) (BSA; H2O, 25 °C (Table 5)) | –ΔTS (BSA) (BSA; H2O, 25 °C (Table 5)) | Kd (BSA; [9]) [µM] | Kd [2] [µM] | IC50 (H1N1N09) [µM] | IC50 (H1N1 clinical) [µM] | IC50 (HSV-2 [3]) [µM] | IC50 (HSV-2 [4]) [µM] | IC50 (HSV-1) [µM] | logP [5] | CMC [6] [µM] | IC50 (Flu B) [µM] | inhibition mechanism against HSV-2 (in words) (HSV-2 [7]) | -∆TS (BSA) (BSA; PBS, 25 °C (Table S3)) [kcal/mol] | Kd (BSA; PBS, 25 °C (Table S3)) [µM] | N (BSA) (BSA; PBS, 25 °C (Table S3)) | ∆G (BSA) (BSA; PBS, 25 °C (Table S3)) [kcal/mol] | ∆H (BSA) (BSA; PBS, 25 °C (Table S3)) [kcal/mol] | other results
1 | O=S(=O)(O)CCCCCCCCCCCSCc1cc(CSCCCCCCCCCCCS(=O)(=O)O)cc(CSCCCCCCCCCCCS(=O)(=O)O)c1 [B3C11SO3] | > 546 | –7.15 kcal/mol | –9.08 kcal/mol | 1.93 kcal/mol | 5.82 | 23.2 | 35.2 ± 4.7 | 4.2 ± 0.36 | 10.3 ± 1.17 | 88.5 ± 7.6 | 139 ± 4.6 | -2.43 | 497 ± 20.9 | 324 ± 103 | virustatic | – | – | – | – | – | -∆TS (BSA) (BSA; H2O, 25 °C (Table S3)): 1.93 kcal/mol; N (BSA) (BSA; H2O, 25 °C (Table S3)): 1.1; ∆G (BSA) (BSA; H2O, 25 °C (Table S3)): -7.15 kcal/mol; ∆H (BSA) (BSA; H2O, 25 °C (Table S3)): -9.08 kcal/mol; -∆TS (BSA) (BSA; H2O, 37 °C (Table S3)): 0.272 kcal/mol; Kd (BSA; H2O, 37 °C (Table S3)): 4.97 µM; N (BSA) (BSA; H2O, 37 °C (Table S3)): 0.838; ∆G (BSA) (BSA; H2O, 37 °C (Table S3)): -7.53 kcal/mol; ∆H (BSA) (BSA; H2O, 37 °C (Table S3)): -9.78 kcal/mol; fold reduction in IC50, posttreatment vs pretreatment (HSV-2 [3]; HSV-2): approximately 9 fold; Virucidal/Virustatic, HSV-2 (HSV-2 [7]; concentration 300 uM): Virustatic; Virucidal/Virustatic, HSV-2 (HSV-2 [7]; concentration 500 uM): Virustatic; Virucidal activity, HSV-2 (HSV-2 [7]; virucidal titration at 90–99% viral inhibition concentration, Vero cells): S
2 | O=S(=O)(O)OCCCCCCCCCCCSCc1cc2c(cc1CSCCCCCCCCCCCOS(=O)(=O)O)OCCOCCOc1cc(CSCCCCCCCCCCCOS(=O)(=O)O)c(CSCCCCCCCCCCCOS(=O)(=O)O)cc1OCCOCCO2 [C4C11SO4] | > 657 | –6.07 kcal/mol | –2.73 kcal/mol | –3.34 kcal/mol | 35.7 | 141 | 80.9 ± 13.7 | > 202 | 4.8 ± 0.7 | 18.5 ± 5.2 | 22.5 ± 4.2 | -1.76 | 1003 ± 24.6 | 47.9 ± 9.38 | – | -3.6 | 161 | 10 | -5.18 | -1.58 | N (binding sites, BSA) (BSA; H2O, 25 °C (Table 5)): 2.5; -∆TS (BSA) (BSA; PBS, 37 °C (Table S3)): -4.71 kcal/mol; Kd (BSA; PBS, 37 °C (Table S3)): 8.47 µM; N (BSA) (BSA; PBS, 37 °C (Table S3)): 7.6; ∆G (BSA) (BSA; PBS, 37 °C (Table S3)): -7.2 kcal/mol; ∆H (BSA) (BSA; PBS, 37 °C (Table S3)): -2.49 kcal/mol; IC50 [8]: 66.1 ± 1.23 µM
3 | O=S(=O)(O)CCCCCCCCCCCSCc1cc2c(cc1CSCCCCCCCCCCCS(=O)(=O)O)OCCOCCOc1cc(CSCCCCCCCCCCCS(=O)(=O)O)c(CSCCCCCCCCCCCS(=O)(=O)O)cc1OCCOCCO2 [C4C11SO3] | > 358 | –6.81 kcal/mol | –0.934 kcal/mol | –5.88 kcal/mol | 10.3 | 83.5 | 15.8 ± 3.1 | 10.4 ± 3.34 | 12.3 ± 0.76 | 9.8 ± 1.5 | 118 ± 10.4 | -2.25 | 237 ± 17.1 | 7.7 ± 3.75 | virucidal | -2.06 | 124 | 10 | -5.33 | -1.58 | N (binding sites, BSA) (BSA; H2O, 25 °C (Table 5)): 2.63; -∆TS (BSA) (BSA; PBS, 37 °C (Table S3)): -7.9 kcal/mol; Kd (BSA; PBS, 37 °C (Table S3)): 1.64 µM; N (BSA) (BSA; PBS, 37 °C (Table S3)): 2.6; ∆G (BSA) (BSA; PBS, 37 °C (Table S3)): -8.21 kcal/mol; ∆H (BSA) (BSA; PBS, 37 °C (Table S3)): -0.315 kcal/mol; IC50 [8]: 173.8 ± 1.52 µM; Virucidal/Virustatic, HSV-2 (HSV-2 [7]; concentration 126.3 uM): Virucidal; Virucidal/Virustatic, HSV-2 (HSV-2 [7]; concentration 237.16 uM): Virucidal; Virucidal/Virustatic, HSV-2 (HSV-2 [7]; concentration 304 uM): Virucidal
4 | O=S(=O)(O)OCCCCCCCCCCCSCc1cc(CSCCCCCCCCCCCOS(=O)(=O)O)cc(CSCCCCCCCCCCCOS(=O)(=O)O)c1 [B3C11SO4] | 313 ± 28.7 | –7.71 kcal/mol | –5.4 kcal/mol | –2.31 kcal/mol | 2.23 | 28.2 | 0.9 ± 0.05 | 0.7 ± 0.04 | 18 ± 1.13 | 43 ± 8.3 | 43 ± 1.14 | -2.2 | 556 ± 35.1 | 0.4 ± 0.04 | virucidal | -9.86 | 3.8 | 3.21 | -7.46 | 2.46 | -∆TS (BSA) (BSA; PBS, 37 °C (Table S3)): -9.8 kcal/mol; Kd (BSA; PBS, 37 °C (Table S3)): 1.37 µM; N (BSA) (BSA; PBS, 37 °C (Table S3)): 2.58; ∆G (BSA) (BSA; PBS, 37 °C (Table S3)): -8.32 kcal/mol; ∆H (BSA) (BSA; PBS, 37 °C (Table S3)): 1.48 kcal/mol; IC50 [8]: 152.8 ± 1.27 µM
